Measured values as given in ChEMBL document CHEMBL1201862, “PubChem BioAssay data set” (2004).
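How tested: cells in 96-well plates exposed to compound for 48 hours at five concentrations. The concentration for 50% growth inhibition is given as GI50.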 Activity calls are given as the source filed them. Rule as the data show it: active = GI50 up to about 1.1 µM and inactive = higher.

Columns and labels:
Assay in all cases: inhibition of tumour cell growth, NCI panel, 48 h
[1] = tested on: MOLT-4
[2] = tested on: UACC-62
[3] = tested on: OVCAR-5
[4] = tested on: MDA-MB-435
[5] = tested on: HT-29
[6] = tested on: UACC-257
[7] = tested on: Hs-578T
[8] = tested on: SK-MEL-28
[9] = tested on: OVCAR-4
[10] = tested on: ACHN
[11] = tested on: SNB-19
[12] = tested on: A549
[13] = tested on: SK-OV-3
[14] = tested on: HCT-15
[15] = tested on: IGROV-1
[16] = tested on: PC-3
[17] = tested on: SF-295
[18] = tested on: HL-60
[19] = tested on: SF-268
[20] = tested on: NCI/ADR-RES
[21] = tested on: OVCAR-3
[22] = tested on: NCI-H23
[23] = tested on: EKVX
[24] = tested on: MDA-MB-231
[25] = tested on: CCRF-CEM
[26] = tested on: NCI-H226
[27] = tested on: OVCAR-8
[28] = tested on: SK-MEL-2
[29] = tested on: NCI-H460
[30] = tested on: TK-10
[31] = tested on: MCF7
[32] = tested on: 786-0
[33] = tested on: SF-539
[34] = tested on: SN12C
[35] = tested on: SW-620
[36] = tested on: DU-145
[37] = tested on: RXF 393
[38] = tested on: SK-MEL-5
[39] = tested on: HOP-92
[40] = tested on: RPMI-8226
[41] = tested on: HCT-116
[42] = tested on: HOP-62
[43] = tested on: Malme-3M
[44] = tested on: SR
[45] = tested on: COLO 205
[46] = tested on: M14
[47] = tested on: CAKI-1
[48] = tested on: U-251
[49] = tested on: MDA-N
[50] = tested on: SNB-75
[51] = tested on: UO-31
[52] = tested on: KM12
[53] = tested on: LOX IMVI
[54] = tested on: K562
[55] = tested on: NCI-H522
[56] = tested on: A498
[57] = tested on: HCC 2998

N#C/C(=C/n1c(=S)[nH]c2ccc([N+](=O)[O-])cc21)C(N)=O
GI50 [1]: > 100 µM (inactive)
GI50 [2]: > 100 µM (inactive)
GI50 [3]: > 100 µM (inactive)
GI50 [4]: > 100 µM (inactive)
GI50 [5]: > 100 µM (inactive)
GI50 [6]: > 100 µM (inactive)
GI50 [7]: > 100 µM (inactive)
GI50 [8]: > 100 µM (inactive)
GI50 [9]: > 100 µM (inactive)
GI50 [10]: > 100 µM (inactive)
GI50 [11]: > 100 µM (inactive)
GI50 [12]: > 100 µM (inactive)
GI50 [13]: > 100 µM (inactive)
GI50 [14]: > 100 µM
GI50 [15]: > 100 µM (inactive)
GI50 [16]: > 100 µM (inactive)
GI50 [17]: > 100 µM (inactive)
GI50 [18]: 9.33 µM (inactive)
GI50 [19]: > 100 µM (inactive)
GI50 [20]: > 100 µM (inactive)
GI50 [21]: > 100 µM (inactive)
GI50 [22]: > 100 µM (inactive)
GI50 [23]: 22.2 µM (inactive)
GI50 [24]: > 100 µM (inactive)
GI50 [25]: > 100 µM (inactive)
GI50 [26]: > 100 µM (inactive)
GI50 [27]: > 100 µM (inactive)
GI50 [28]: > 100 µM (inactive)
GI50 [29]: > 100 µM (inactive)
GI50 [30]: > 100 µM (inactive)
GI50 [31]: > 100 µM (inactive)
GI50 [32]: > 100 µM (inactive)
GI50 [33]: > 100 µM (inactive)
GI50 [34]: > 100 µM (inactive)
GI50 [35]: > 100 µM (inactive)
GI50 [36]: > 100 µM (inactive)
GI50 [37]: > 100 µM (inactive)
GI50 [38]: > 100 µM (inactive)
GI50 [39]: > 100 µM (inactive)
GI50 [40]: > 100 µM (inactive)
GI50 [41]: > 100 µM (inactive)
GI50 [42]: > 100 µM (inactive)
GI50 [43]: > 100 µM (inactive)
GI50 [44]: > 100 µM (inactive)
GI50 [45]: > 100 µM (inactive)
GI50 [46]: > 100 µM (inactive)
GI50 [47]: > 100 µM (inactive)
GI50 [48]: > 100 µM (inactive)
GI50 [49]: > 100 µM (inactive)
GI50 [50]: 19.7 µM (inactive)
GI50 [51]: > 100 µM (inactive)
GI50 [52]: > 100 µM (inactive)
GI50 [53]: > 100 µM (inactive)

Cc1ccc(S(=O)(=O)NC(=O)NCCc2ccc(O)c(O)c2)cc1
GI50 [1]: 58.2 µM (inactive)
GI50 [2]: > 100 µM (inactive)
GI50 [3]: > 100 µM (inactive)
GI50 [4]: 51.3 µM (inactive)
GI50 [5]: > 100 µM (inactive)
GI50 [7]: > 100 µM (inactive)
GI50 [8]: > 100 µM (inactive)
GI50 [9]: > 100 µM (inactive)
GI50 [10]: > 100 µM (inactive)
GI50 [11]: > 100 µM (inactive)
GI50 [12]: > 100 µM (inactive)
GI50 [13]: > 100 µM (inactive)
GI50 [14]: > 100 µM
GI50 [15]: > 100 µM (inactive)
GI50 [16]: > 100 µM (inactive)
GI50 [17]: > 100 µM (inactive)
GI50 [18]: 56.5 µM (inactive)
GI50 [19]: > 100 µM (inactive)
GI50 [20]: > 100 µM (inactive)
GI50 [54]: > 100 µM (inactive)
GI50 [21]: > 100 µM (inactive)
GI50 [22]: > 100 µM (inactive)
GI50 [23]: > 100 µM (inactive)
GI50 [24]: > 100 µM (inactive)
GI50 [26]: > 100 µM (inactive)
GI50 [55]: > 100 µM (inactive)
GI50 [27]: 97.3 µM (inactive)
GI50 [28]: > 100 µM (inactive)
GI50 [29]: > 100 µM (inactive)
GI50 [30]: > 100 µM (inactive)
GI50 [31]: 61.8 µM (inactive)
GI50 [32]: > 100 µM (inactive)
GI50 [56]: > 100 µM (inactive)
GI50 [33]: > 100 µM (inactive)
GI50 [35]: > 100 µM (inactive)
GI50 [36]: > 100 µM (inactive)
GI50 [37]: > 100 µM (inactive)
GI50 [38]: 37.2 µM (inactive)
GI50 [57]: > 100 µM (inactive)
GI50 [39]: > 100 µM (inactive)
GI50 [40]: 38 µM (inactive)
GI50 [41]: > 100 µM (inactive)
GI50 [42]: > 100 µM (inactive)
GI50 [43]: > 100 µM (inactive)
GI50 [44]: > 100 µM (inactive)
GI50 [45]: > 100 µM (inactive)
GI50 [46]: > 100 µM (inactive)
GI50 [47]: > 100 µM (inactive)
GI50 [48]: > 100 µM (inactive)
GI50 [50]: > 100 µM (inactive)
GI50 [51]: > 100 µM (inactive)
GI50 [52]: > 100 µM (inactive)
GI50 [53]: 53.6 µM (inactive)
